Source: patent US10975116B2, “Methods of treating and preventing gastrointestinal motility disorders using aminosterols” (Enterin, Inc., priority 2013, dated 2021)
“Also recorded” adds a separate entry of the source. Like-named read-outs stand apart in the source and are kept apart here.

Tests used:
[1] = system: gastrointestinal tract; test: Aminosterol Induced GI Response after oral capsule in a human; type: in vivo
Method: Gelatin capsules were prepared for oral administration. Capsules were coated in shellac to prevent their release within the stomach. Furthermore, because squalamine and related aminosterols have antibiotic activity, enteric coating prevents the drug from altering the microbial populations of the stomach. […] Squalamine dilactate powder, 99% pure, or 1436 hydrochloride, 99% pure, was added manually into either Size 0 (for the 200 mg dose) or Size 1 (for the 100 mg dose) gelatin capsules. No excipient was added. The capsules were coated twice in 5% shellac (80% acetone/20% ethanol) and dried before use.
200 mg of squalamine (lactate salt, excipient free) in a coated gelatin capsule was administered orally to a human in the morning on an empty stomach, with water. Squalamine was synthesized as described in Zasloff et al 2011. Within 2 hours nausea was experienced, lasting about 30 minutes. At 2.5 hours, increased peristalsis (“rumbling gut”) was experienced, lasting several minutes. At about 3 hours, a clear watery discharge of about 200 ml was passed rectally. A second episode occurred at 3.2 hours. Following this episode, bowel sounds quieted. No nausea or discomfort was subsequently experienced. Appetite was near normal. Despite normal feeding, feces were not passed for 2.5 days over which time no discomfort was experienced. The first feces passed after this quiescent period was soft and relatively small considering the intake of food and the time interval. Usual bowel functions resumed by about 4 days after squalamine administration.
200 mg of 1436 (HCl salt, excipients free) in a gelatin capsule was administered orally to a human in the morning on an empty stomach, with water. […] At 2 hours, about 100 ml of clear watery diarrhea, recurring at 2.75 hours, 3 hours, 3.25 hours, and 4 hours, with progressively lesser volumes of liquid discharged. First bowel movement was passed at 3.5 days, of normal consistency. The subject experienced no abdominal discomfort, bloating, etc over this period. Usual bowel functions resumed by about 4.5 days after administration of Aminosterol 1436. […]
100 mg of squalamine was orally administered in a capsule as in the first example. […] A period of “bowel quiet” was induced, however, that lasted 2 days, after which normally formed feces were passed.

[2] = system: GLP-1; test: GLP-1 release into the blood stream after oral squalamine and lipid/carbohydrate meal (ELISA); type: in vivo, human
Method: Enteroendocrine cells, which contain entreric hormones, are known to respond to a variety of stimuli they contact in the intestinal lumen, and release hormones into the submucosa and subsequently into the bloodstream. In particular, GLP-1, the product of the L-cell, is known to have motility effects on the small intestine that resemble those observed after oral administration of squalamine. In this example, a lipid/carbohydrate meal was administered which is known to provoke the release of GLP-1 into the bloodstream. The GLP-1 response of the GI tract to the meal was compared in the presence or absence of squalamine, with blood levels of GLP-1 measured using an ELISA based immunoassay.
• 1. Subject (BMI: […], no medical illness) was fasted overnight • 2. IV catheter 18 gauge implanted in R […] fossa • 3. Blood samples drawn at 9:30 A, 11 A, 11:30 A, 12:30 P, 1:30 P, 2 P, 2:30, 3, 3:30, 4:30, 5:30 • 4. Empty capsule and water at 10:30 A • 5. Lipid/carbohydrate meal (2 slices of white bread, each with 5.5 gms butter) at 2 P • 6. Blood samples: 2 ml into Becton-Dickenson Protease-inhibited Biomarker tubes; 3 ml into standard red top blood collection tubes. • 7. All samples were immediately spun at 3000 rpm×15 and serum or plasma aliquotted into 1.5 ml eppendorfs and then stored at −80° C. Squalamine Response • 1. Subject rested 3 days and re-evaluated 4 days after the Control response • 2. Fasted overnight • 3. IV catheter implanted • 4. Samples drawn at 10, 11, 11:30, 12:30, 1:30, 2:30, 3, 3:30, 4:30, 5:30 • 5. Squalamine capsule, 200 mg at 10:30 A • 6. Bread and butter, 2 P • 7. Blood samples collected and processed as in the Control study
GLP-1 analyses (Total immunoreactive GLP-1): A Millipore ELISA kit was used (Cat #EZGLP1T-36K).

[3] = system: colon migrating motor complex (MMC); test: Colonic motility and intraluminal pressure in excised colon segment; set-up: species or system mouse; conditions: squalamine added to the colonic lumen
Method: A segment of colon was excised from a mouse, and one end was attached to a glass tube housing a pressure sensor. A video camera recorded the visible contractions of the segment. When squalamine was added to the colonic lumen, the frequency of contractions increased about 2 fold, representing coordinated peristaltic waves that move toward the rectum.

[4] = system: mucinous adenocarcinoma (Stage 4b colon cancer); test: Oral squalamine in Stage 4b colon cancer, single subject; type: in vivo, human
Method: A person presented with abdominal distention, pain, and progressive weight loss of several months duration.
The individual was begun on a total daily dose of 50 mg of squalamine, administered as 25 mg twice daily, as a powder dispersed in apple sauce. Approximately 6 months after initiation of squalamine treatment the individual was seen again at the hospital due to the chance recognition of a mass on their right kidney. The kidney was surgically removed, and during the procedure the peritoneum explored. […] The mass on the kidney was a benign cyst. Treatment with squalamine continued daily for 5 years. […] The subject died […] of a myocardial infarction.

[5] = cited from earlier work; for oral bioavailability: animals (rodents; mice and dogs)
[6] = single 100 mg oral capsule, empty stomach
[7] = single 200 mg oral capsule, morning, empty stomach, one human

Substance: squalamine
- gastrointestinal response ([1]; 200 mg oral capsule in the evening following a large meal, overnight and following morning): No gastrointestinal response
- duration of the Aminosterol-Induced GI Response ([1]; following a single 200 mg oral dose): about 4 days
- period of bowel quiet after the watery discharge (Phase III) ([1]; following the larger squalamine dose (for example 200 mg)): 2 to 3 days
- duration of bowel quiet [1, 6]: 2 days
- nausea and watery diarrhea [1, 6]: Neither nausea, nor watery diarrhea was experienced
- duration of nausea [1, 7]: about 30 minutes
- first clear watery rectal discharge / diarrhea, time after dosing [1, 7]: about 3 hours
- further episodes of watery discharge, time after dosing [1, 7]: 3.2 h
- increased peristalsis, time after dosing [1, 7]: 2.5 h
- nausea, time of onset after dosing [1, 7]: ≤ 2 h
- usual bowel functions resumed, time after administration [1, 7]: about 4 days
- volume of first clear watery discharge [1, 7]: about 200 ml
- time without feces / to first bowel movement after dosing ([1]; single 200 mg oral capsule, morning, empty stomach, normal behavior about 1 passage every 24 hours): 2.5 days
- estimated reduction of small intestinal motility ([1]; single 200 mg oral dose, versus normal about 1 passage every 24 hours): 2.5 fold
- Squalamine Response: Clinical ([2]; 200 mg capsule at 10:30 A, light headedness 11 A-12:15, nausea 1:45, diarrhea 2 P, 2:20, 2:36, 3:15): Episodes of light headedness; also recorded: Episode of mild nausea; also recorded: Passage of watery diarrhea
- effect on the release of GLP-1 from the small intestine ([2]; 200 mg oral versus empty capsule, same subject): No significant effect
- GLP-1 blood level ([2]; blood sample at 1:30, 200 mg capsule at 10:30 A, meal at 2 P): 9 pM
- GLP-1 blood level ([2]; blood sample at 2:30, 200 mg capsule at 10:30 A, meal at 2 P): 8 pM
- GLP-1 blood level ([2]; blood sample at 3:00, 200 mg capsule at 10:30 A, meal at 2 P): 8 pM
- GLP-1 blood level ([2]; blood sample at 3:30, 200 mg capsule at 10:30 A, meal at 2 P): 6 pM
- GLP-1 blood level ([2]; blood sample at 4:30, 200 mg capsule at 10:30 A, meal at 2 P): 5 pM
- GLP-1 blood level ([2]; blood sample at 5:30, 200 mg capsule at 10:30 A, meal at 2 P): 3 pM
- GLP-1 blood level ([2]; blood sample at 10 (before 200 mg capsule at 10:30 A), total immunoreactive GLP-1): 6 pM
- GLP-1 blood level ([2]; blood sample at 11:30, 200 mg capsule at 10:30 A, meal at 2 P): 4 pM
- GLP-1 blood level ([2]; blood sample at 11, 200 mg capsule at 10:30 A, meal at 2 P): 5 pM
- GLP-1 blood level ([2]; blood sample at 12:30, 200 mg capsule at 10:30 A, meal at 2 P): 10 pM
- increase of the frequency of contractions [3]: about 2 fold
- peak pressure of MMC waves ([3]; versus before application): did not differ; also recorded: no apparent effect
- tumor at surgical exploration of the peritoneum ([4]; 50 mg/day (25 mg twice daily, powder in apple sauce), approximately 6 months): No tumor was visible
- recurrence ([4]; daily treatment for 5 years): no recurrence of cancer
- absorption from the gastrointestinal tract ([5]; extensive studies in animals): neither squalamine nor Aminosterol 1436 can be absorbed to any extent
- oral bioavailability [5]: low bioavailability
- oral bioavailability ([5]; listed as squalamine lactate): poorly bioavailable orally
- absorption by the subcutaneous and intraperitoneal routes ([5]; rodents): well absorbed
